Like-named read-outs stand apart in the source and are kept apart here.
Legend:
[1] = system: Meloidogyne incognita; test: Meloidogyne incognita test (sand, lettuce, gall formation after 14 days); type: in vivo; details: 20 ppm
Protocol: 2. Meloidogyne Incognita Test
Solvent: 125.0 parts by weight of acetone
To produce an appropriate active compound formulation, 1 part by weight of active compound is mixed with the stated amount of solvent and the concentrate is diluted with water to the desired concentration.
Vessels are filled with sand, active compound solution, an egg/larvae suspension of the southern root-knot nematode (Meloidogyne incognita) and lettuce seeds. The lettuce seeds germinate and the plants develop. The galls develop on the roots.
After 14 days, the nematicidal efficacy in % is determined by the formation of galls. 100% means that no galls were found; 0% means that the number of galls on the treated plants corresponds to the untreated control.

[2] = system: Tetranychus urticae; test: Tetranychus urticae spray test, OP-resistant (bean leaf discs); type: in vivo; details: 500 g/ha, after 6 days
Protocol: 4. Tetranychus urticae—Spray Test, OP-Resistant
(§1) Solvent: 78.0 parts by weight of acetone
(§2) • 1.5 parts by weight of dimethylformamide Emulsifier: alkylaryl polyglycol ether
To produce further test concentrations, the preparation is diluted with emulsifier-containing water.
After 6 days, the efficacy in % is determined. 100% means that all the spider mites have been killed; 0% means that none of the spider mites have been killed.

[3] = system: Tetranychus urticae; test: Tetranychus urticae spray test, OP-resistant (bean plants); type: in vivo; details: 20 ppm, after 7 days
Protocol: 6. Tetranychus urticae—Spray Test, OP-Resistant
(§3) Solvent: 7 parts by weight of dimethylformamide
Emulsifier: alkylaryl polyglycol ether
(§4) To produce an appropriate active compound formulation, 1 part by weight of active compound is dissolved using the specified parts by weight of solvent and made up with water containing an emulsifier concentration of 1000 ppm until the desired concentration is attained. To produce further test concentrations, the preparation is diluted with emulsifier-containing water. If the addition of ammonium salts or/and penetrants is required, these are each added in a concentration of 1000 ppm to the formulation solution.
Bean plants (Phaseolus vulgaris) heavily infested by all stages of the greenhouse red spider mite (Tetranychus urticae) are treated by spraying with the active compound formulation in the desired concentration.
After 7 days, the efficacy in % is determined. 100% means that all the spider mites have been killed; 0% means that none of the spider mites have been killed.

[4] = system: Boophilus microplus; test: Boophilus microplus injection test; type: in vivo; details: 20 μg/animal, assessed after 7 days
Protocol: 1. Boophilus microplus—Injection Test
Solvent: dimethyl sulphoxide
To produce an appropriate active compound formulation, 10 mg of active compound are mixed with 0.5 ml of solvent and the concentrate is diluted with solvent to the desired concentration.
1 μl of the active compound solution is injected into the abdomen of 5 engorged adult female cattle ticks (Boophilus microplus). The animals are transferred into dishes and kept in a climate-controlled room.
The efficacy is assessed after 7 days by laying of fertile eggs. Eggs which are not visibly fertile are stored in a climate-controlled cabinet until the larvae hatch after about 42 days. An efficacy of 100% means that none of the ticks has laid any fertile eggs; 0% means that all the eggs are fertile.

[5] = system: Tetranychus urticae; test: Comparative Tetranychus urticae spray test, OP-resistant (TETRUR); type: in vivo; details: 144 h
Protocol: 2. Tetranychus urticae—Spray Test; OP-Resistant ([…])
as §1, §2
as §4, with “water.” for “water. If the addition of ammonium salts or/and penetrants is required, these are each added in a concentration of 1000 ppm to the formulation solution.”
Discs of bean leaves (Phaseolus vulgaris) infested by all stages of the greenhouse red spider mite (Tetranychus urticae) are sprayed with an active compound formulation of the desired concentration.
After the desired period of time, the effect in % is determined 100% means that all the spider mites have been killed; 0% means that none of the spider mites have been killed.

[6] = log P by reversed-phase HPLC analogously to OECD Guideline 117; type: physicochemical; details: reversed-phase C18 HPLC column
Protocol: The log P values were determined analogously to OECD Guideline 117 (EC Directive 92/69/EEC) by HPLC (high-performance liquid chromatography) using reversed-phase columns (C 18), by the following methods:
[a] The LC-MS determination in the acidic range is effected at pH 2.7 with 0.1% aqueous formic acid and acetonitrile (contains 0.1% formic acid) as eluents; linear gradient from 10% acetonitrile to 95% acetonitrile. log P^[…] is also referred to as log P(HCOOH). [b] LC-MS determination in the neutral range is effected at pH 7.8 with 0.001 molar aqueous ammonium hydrogencarbonate solution and acetonitrile as eluents; linear gradient from 10% acetonitrile to 95% acetonitrile. log P^[…] is also referred to as log P(neutral).
Calibration is effected with solutions of a homologous series of unbranched alkan-2-ones (having 3 to 16 carbon atoms) with known log P values (log P values determined on the basis of the retention times by linear interpolation between two successive alkanones).

[7] = system: Phaedon cochleariae; test: whole plant or invertebrate; type: in vivo; details: 168 h
Protocol: 1. Phaedon cochleariae—Spray Test (PHAECO)
as §1, §2
as §4, with “water.” for “water. If the addition of ammonium salts or/and penetrants is required, these are each added in a concentration of 1000 ppm to the formulation solution.”
(§5) Discs of Chinese cabbage leaves (Brassica pekinensis) are sprayed with an active compound formulation of the desired concentration and, after drying, populated with larvae of the mustard beetle (Phaedon cochleariae).
After the desired period of time, the effect in % is determined. 100% means that all the beetle larvae have been killed; 0% means that no beetle larvae have been killed.

[8] = system: Phaedon cochleariae; test: Phaedon cochleariae spray test; type: in vivo; details: 500 g/ha, after 7 days
Protocol: 3. Phaedon cochleariae—Spray Test
Solvent: 78.0 parts by weight of acetone • • 1.5 parts by weight of dimethylformamide Emulsifier: alkylaryl polyglycol ether
as §4, with “water.” for “water. If the addition of ammonium salts or/and penetrants is required, these are each added in a concentration of 1000 ppm to the formulation solution.”
as §5
After 7 days, the efficacy in % is determined 100% means that all the beetle larvae have been killed; 0% means that no beetle larvae have been killed.

[9] = system: Meloidogyne incognita; test: Meloidogyne incognita test (soil drench, gall formation after 21 days); type: in vivo; details: 8 ppm
Protocol: 5. Meloidogyne incognita Test
as §3
Emulsifier: 2.5 parts by weight of alkylaryl poly glycol ether
To produce an appropriate active compound formulation, 1 part by weight of active compound is mixed with the stated amounts of solvent and emulsifier, and the concentrate is diluted with water to the desired concentration, it being necessary to include the volume of soil which is drenched in the calculation. It should be ensured that a concentration of 20 ppm of emulsifier in the soil is not exceeded. To produce further test concentrations, water is used for dilution.
Pots filled with soil (loamy sand) are watered with the active compound solution. An egg/larvae suspension of the southern root-knot nematode (Meloidogyne incognita) is added, lettuce seeds are scattered over the surface of the soil, and they are covered over with quartz sand. The lettuce seeds germinate and the plants develop. The galls develop on the roots.
After 21 days, the nematicidal efficacy in % is determined by the formation of galls. 100% means that no galls have been found; 0% means that the number of galls on the treated plants corresponds to the untreated control.

[10] = acidic range, pH 2.7, 0.1% aqueous formic acid/acetonitrile, read-out: logP (HCOOH)
[11] = neutral range, pH 7.8, 0.001 molar aqueous ammonium hydrogencarbonate/acetonitrile, read-out: logP (neutral)

Structure (SMILES): Cc1ccc(-n2cncc(F)c2=O)cc1SCC(F)(F)F [Example 12]
- nematicidal efficacy (formation of galls) [1]: 90%
- efficacy (spider mites killed) [2]: 90%

Structure (SMILES): Cc1cc(C)c([S+]([O-])CC(F)(F)F)cc1-n1cnc(C(F)(F)F)cc1=O (single isomer, unassigned) [Example 49]
- efficacy (spider mites killed) [3]: 100%

Structure (SMILES): Cc1cc(C)c([S+]([O-])CC(F)(F)F)cc1-n1cnc(C(F)(F)F)cc1=O (racemic) [Example 6, 3-[2,4-Dimethyl-5-(2,2,2-trifluoroethylsulphinyl)phenyl]-6-(trifluoromethyl)pyrimidin-4-one]
- efficacy (no fertile eggs laid) [4]: 100%
- efficacy (spider mites killed) [2]: 100%
- mortality at 20 g/ha ([5]; TETRUR, 20 g/ha, 6 dat, read-out: % mortality): 100%
- chromatographic logP [6, 10]: 2.43
- chromatographic logP [6, 11]: 2.39

Structure (SMILES): Cc1cc(C)c([S+]([O-])CC(F)(F)F)cc1-n1cnc(C(F)(F)C(F)(F)F)cc1=O (racemic) [Example 45]
- nematicidal efficacy (formation of galls) [1]: 100%
- efficacy (spider mites killed) [2]: 100%

Structure (SMILES): Cc1cc(C)c(-n2cnc(C(F)(F)F)cc2=O)cc1SCC(F)(F)F [Example 5, 3-[2,4-Dimethyl-5-(2,2,2-trifluoroethylsulphanyl)phenyl]-6-(trifluoromethyl)pyrimidin-4-one]
- efficacy (no fertile eggs laid) [4]: 100%
- efficacy (spider mites killed) [2]: 100%
- chromatographic logP [6, 10]: 3.56
- chromatographic logP [6, 11]: 3.5

Structure (SMILES): Cc1ccc(-n2cncc(C)c2=O)cc1[S+]([O-])CC(F)(F)F (racemic) [Example 27]
- nematicidal efficacy (formation of galls) [1]: 90%

Structure (SMILES): N#Cc1cc(F)c(-n2cnc(C(F)(F)F)cc2=O)cc1[S+]([O-])CC(F)(F)F (centres unmarked) [5-fluoro-4-[6-oxo-4-(trifluoromethyl)pyrimidin-1-yl]-2-(2,2,2-trifluoroethylsulphinyl)benzonitrile]
- mortality at 500 g/ha [7]: 50%

Structure (SMILES): Cc1cc(C)c([S+]([O-])CC(F)(F)F)cc1-n1cnc(C(F)(F)F)cc1=O (single isomer, unassigned) [Example 56]
- efficacy (spider mites killed) [3]: 100%

Structure (SMILES): Cc1cc(C)c(-n2c(C)nc(C(F)(F)F)cc2=O)cc1SCC(F)(F)F [Example 30]
- nematicidal efficacy (formation of galls) [1]: 90%
- efficacy (spider mites killed) [2]: 100%

Structure (SMILES): O=c1cc(C(F)(F)F)ncn1-c1ccc(Cl)c([S+]([O-])CC(F)(F)F)c1 (racemic) [Example 34]
- efficacy (no fertile eggs laid) [4]: 100%
- efficacy (beetle larvae killed) [8]: 83%
- efficacy (spider mites killed) [2]: 100%

Structure (SMILES): Cc1cc(F)c(-n2cnc(C(F)(F)F)cc2=O)cc1[S+]([O-])CC(F)(F)F (centres unmarked) [Example 2, 3-{2-Fluoro-4-methyl-5-[(2,2,2-trifluoroethyl)sulphinyl]phenyl}-6-(trifluoromethyl)pyrimidin-4(3H)-one]
- efficacy (no fertile eggs laid) [4]: 100%
- efficacy (beetle larvae killed) [8]: 100%
- efficacy (spider mites killed) [2]: 100%
- nematicidal efficacy (formation of galls) [9]: 85%
- mortality at 500 g/ha [7]: 100%
- chromatographic logP [6, 10]: 2.4
- chromatographic logP [6, 11]: 2.38

Structure (SMILES): Cc1cc(=O)n(-c2cc(SCC(F)(F)F)c(C)cc2F)cn1 [Example 44]
- efficacy (beetle larvae killed) [8]: 100%
- efficacy (spider mites killed) [2]: 100%

Structure (SMILES): Cc1cc(F)c(-n2cnc(C(F)F)cc2=O)cc1[S+]([O-])CC(F)(F)F (racemic) [Example 55]
- efficacy (beetle larvae killed) [8]: 100%
- efficacy (spider mites killed) [2]: 100%

Structure (SMILES): Cc1cc(F)c(-n2cnc(C(F)(F)C(F)(F)F)cc2=O)cc1[S+]([O-])CC(F)(F)F (single isomer, unassigned) [Example 18]
- efficacy (beetle larvae killed) [8]: 83%
- efficacy (spider mites killed) [2]: 100%

Structure (SMILES): Cc1cc(=O)n(-c2cc([S+]([O-])CC(F)(F)F)c(C)cc2F)cn1 (racemic) [Example 46]
- efficacy (beetle larvae killed) [8]: 83%
- efficacy (spider mites killed) [2]: 100%

Structure (SMILES): Cc1cc(C)c([S+]([O-])CC(F)(F)F)cc1-n1cnc(C(F)(F)C(F)(F)F)cc1=O (racemic) [Example 33]
- nematicidal efficacy (formation of galls) [1]: 100%
- efficacy (spider mites killed) [2]: 100%

Structure (SMILES): O=c1cc(C(F)(F)F)ncn1-c1cc([S+]([O-])CC(F)(F)F)c(Br)cc1F (racemic) [Example 41]
- nematicidal efficacy (formation of galls) [1]: 90%
- efficacy (spider mites killed) [2]: 100%

Structure (SMILES): Cc1cc(F)c(-n2cnc(C(F)(F)C(F)(F)F)cc2=O)cc1SCC(F)(F)F [Example 9]
- efficacy (no fertile eggs laid) [4]: 100%
- nematicidal efficacy (formation of galls) [1]: 90%
- efficacy (beetle larvae killed) [8]: 100%
- efficacy (spider mites killed) [2]: 100%

Structure (SMILES): Cc1cc(F)c(-n2cnc(C(F)(F)C(F)(F)F)cc2=O)cc1[S+]([O-])CC(F)(F)F (single isomer, unassigned) [Example 26]
- efficacy (no fertile eggs laid) [4]: 100%
- nematicidal efficacy (formation of galls) [1]: 90%
- efficacy (spider mites killed) [2]: 100%

Structure (SMILES): Cc1cc(Cl)c(-n2cnc(C(F)(F)F)cc2=O)cc1[S+]([O-])CC(F)(F)F (racemic) [Example 53]
- efficacy (no fertile eggs laid) [4]: 100%
- efficacy (beetle larvae killed) [8]: 100%
- efficacy (spider mites killed) [2]: 100%

Structure (SMILES): N#Cc1ccc(-n2cnc(C(F)(F)F)cc2=O)cc1[S+]([O-])CC(F)(F)F (centres unmarked) [4-[6-oxo-4-(trifluoromethyl)pyrimidin-1-yl]-2-(2,2,2-trifluoroethylsulphinyl)benzonitrile, reference compound]
- mortality at 500 g/ha [7]: 0%
- mortality at 20 g/ha [5]: 0%
